Measurements published in PMC5371824, “Phosphatidylinositol (4,5)-bisphosphate dynamically regulates the K2P background K^+ channel TASK-2” (Scientific Reports, 2017).
Where a chain is given by its changes, count along the chain named.

Experiments:
Set-up in all cases: key to MTSET effect: ✓ under “MTSET effect” indicates a significant increase in current after treatment with the methanesulfonate reagent; — in all cases stands for no significant effect
[1] = molecular target: T1, TASK-2-K254C (Mus musculus, UniProt F6V9U5, K254C); experiment: Excised inside-out patch recording, TASK-2-K254C mutant; assay type: biochemical
T1 construct: expressed in transfected cells; host or cells: HEK-293
T1 sequence (F6V9U5 1-502 K254C): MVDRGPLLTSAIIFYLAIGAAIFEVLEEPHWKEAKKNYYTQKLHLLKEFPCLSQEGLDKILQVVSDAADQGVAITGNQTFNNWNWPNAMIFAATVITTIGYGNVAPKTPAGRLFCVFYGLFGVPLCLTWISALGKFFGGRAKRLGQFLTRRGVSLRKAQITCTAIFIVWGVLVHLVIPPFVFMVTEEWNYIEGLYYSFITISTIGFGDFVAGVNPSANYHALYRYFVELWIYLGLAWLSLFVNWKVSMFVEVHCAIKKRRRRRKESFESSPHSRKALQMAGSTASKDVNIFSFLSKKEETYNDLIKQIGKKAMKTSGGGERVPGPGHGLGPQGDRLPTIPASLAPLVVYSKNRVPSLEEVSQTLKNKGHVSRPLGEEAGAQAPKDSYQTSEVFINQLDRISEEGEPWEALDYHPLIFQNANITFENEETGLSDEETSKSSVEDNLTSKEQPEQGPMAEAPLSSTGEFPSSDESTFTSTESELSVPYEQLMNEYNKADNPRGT
Description: Figure 6 Scanning of potential sites of interaction of TASK-2 with PI(4,5)P2 by cysteine mutagenesis of intracellular basic residues. (A) Schematic representation of TASK-2 topology showing the sequences of segments of the protein predicted to be intracellular or intracellular-facing. Basic residues are highlighted in red. (B) Recording from an excised inside-out patch of membrane taken from a HEK-293 cell over-expressing TASK-2. The patch was held at −60 mV in the presence of 1 mM ATP. At the intervals indicated by the boxes the intracellular aspect of the membrane was exposed to 300 μM Neomycin and then to 100 μM TPeA. At the end of the TPeA period the patch was additionally exposed to 1 mM MTSET as shown by the black box. (C and D) experiments as in (B), but with inside-out membrane patches obtained from cells expressing the mutants TASK-2-H327C and TASK-2-K297C respectively. In D the reducing agent DTT was also added at 2 mM. (E) Summary of experiments comparing the current before and after treatment with MTSET. […]
(§1) Recordings in the inside-out isolated patch configuration were performed in the gap-free mode at −60 mV. […] Traces shown are prints from crude Clampfit screen shots and quantification was done using the average currents were calculated at intervals using Clampfit after baseline adjustment.

[2] = test system: TASK-2-R438C; experiment: Excised inside-out patch recording, TASK-2-R438C mutant; assay type: biochemical, Mus musculus
Description: (§2) Mus musculus TASK-2 (GenBank accession No. AF319542) plasmid was that obtained from mouse kidney. The cDNAs was subcloned into the pCR3.1 vector. Mutations were made by site-directed mutagenesis into the pCR3.1 vector as previously described[69] and confirmed by sequencing. HEK-293 cells were cultured in Dulbecco’s modified Eagle’s medium (DMEM) and F12 Ham’s medium at a 1:1 ratio and supplemented with 10% fetal calf serum at 37 °C in 5% CO2. For electrophysiological experiments, transient transfections were performed by electroporation, using CD8 cotransfection to identify effectively transfected cells. […] Experiments were performed 4–8 h after electroporation. In experiments with the voltage-sensitive phosphatase TASK-2 or its mutants were co-electroporated with a pCR3.1-DrVSP-IRES-CD8 vector.
Recordings in the inside-out isolated patch configuration were performed in the gap-free mode at −60 mV. The inside aspect of the patch was bathed with a solution containing in mM: 10 KCl, 10 Glucose, 1 MgCl2, 10 EGTA, 1 Na3ATP, 0.1 GTP, 6.8 g/100 ml Sucrose, 10 Hepes/Tris, pH 7.4. The pipette contained in mM: 140 KCl, 10 Glucose, 6.8 g/100 ml Sucrose, 10 Hepes/Tris pH 7.4. For isolated patches, borosilicate capillaries (Harvard Apparatus GC150F-10 1.5 ODx0.86 ID) were fire polished to 4–5 MΩ and covered in beeswax. Acquisition was at 10 kHz with filter at 3 kHz (4-pole Bessel) and analysis was done with Clampfit 9.0 (Axon Instruments, Foster City, CA, USA). Traces shown are prints from crude Clampfit screen shots and quantification was done using the average currents were calculated at intervals using Clampfit after baseline adjustment.
Fig. S7. Concentration ependence for the inhibition of TASK-2 mutant R438C by
intracellular neomycin. Recording were obtained from excised inside-out patches of
membrane taken from a HEK-293 cells over-expressing TASK-2-R438C. The patches were
held at -60 mV in the presence of 1 mM intracellular ATP. Neomycin was increased
stepwise from 5 to 500 µM in the solution bathing the intracellular aspect of the membrane. […]

[3] = molecular target: T2, TASK-2-K297C (Mus musculus, UniProt F6V9U5, K297C); experiment: Excised inside-out patch recording, TASK-2-K297C mutant; assay type: biochemical
T2 construct: expressed in transfected cells; host or cells: HEK-293
T2 sequence (F6V9U5 1-502 K297C): T1 sequence (F6V9U5 1-502 K254C) with C254K, K297C
Description: Figure 6 Scanning of potential sites of interaction of TASK-2 with PI(4,5)P2 by cysteine mutagenesis of intracellular basic residues. (A) Schematic representation of TASK-2 topology showing the sequences of segments of the protein predicted to be intracellular or intracellular-facing. Basic residues are highlighted in red. (B) Recording from an excised inside-out patch of membrane taken from a HEK-293 cell over-expressing TASK-2. The patch was held at −60 mV in the presence of 1 mM ATP. At the intervals indicated by the boxes the intracellular aspect of the membrane was exposed to 300 μM Neomycin and then to 100 μM TPeA. At the end of the TPeA period the patch was additionally exposed to 1 mM MTSET as shown by the black box. (C and D) experiments as in (B), but with inside-out membrane patches obtained from cells expressing the mutants TASK-2-H327C and TASK-2-K297C respectively. In D the reducing agent DTT was also added at 2 mM. (E) Summary of experiments comparing the current before and after treatment with MTSET.
as §2, with “In experiments with the voltage-sensitive phosphatase TASK-2 or its mutants were co-electroporated with a pCR3.1-DrVSP-IRES-CD8 vector.” left out
as §1

[4] = 1 mM, in the presence of TPeA, inside-out patch

C[N+](C)(C)CCSS(C)(=O)=O.[Cl-] [MTSET, [2-(trimethylammonium)ethyl] methanethiosulfonate chloride]
Effect of MTSET on TASK-2-K254C activity [1, 4]: significantly activated
MTSET effect ([1]; mutation K254C): ✓
Effect of MTSET on TASK-2-R438C activity [2, 4]: not affected
MTSET effect ([2]; mutation R438C): —
Effect of MTSET on TASK-2-K297C activity [3, 4]: markedly enhanced
MTSET effect ([3]; mutation K297C): ✓
